# Source: publication PMC6686156, “Discovery of Sustainable Drugs for Neglected Tropical Diseases: Cashew Nut Shell Liquid (CNSL)‐Based Hybrids Target Mitochondrial Function and ATP Production in Trypanosoma brucei” (Chemmedchem, 2019)
# Where two headings read alike, the source gives them in different places.
# Experiments:
# [1] = tested on: T. b. brucei 427WT bloodstream trypomastigotes; test: microbe, parasite or virus in culture; type: cell-based, Trypanosoma brucei brucei; conditions: for EC50: Trypanosoma brucei; for SI, selectivity index=EC50(HFF)/EC50(T. b. b. WT): HFF versus T. b. b. 427WT; for RF, resistance factor (+ 5 mM glycerol versus control): Table 2
# Description: (§1) Organisms and culture media: Only bloodstream trypomastigotes of T. b. brucei were used throughout this study. […] Parasites were cultured in vented flasks at 37 °C and 5 % CO2 atmosphere and they were passaged every 3 days. Bloodstream forms of T. congolense savannah‐type strain IL3000 were cultured in basal MEM medium, supplemented by 10 % fresh goat serum, 14 μL of β‐mercaptoethanol, 800 μL of 200 mM glutamine solution, and 10 mL of penicillin/streptomycin solution per liter of medium (pH 7.3).48 T. congolense were cultured in six‐well plates at 34 °C and 5 % CO2.
# (§2) In brief, the assays were performed in 96‐well plates with 2×10^5 cells per well for T. b. brucei or 5×10^5 cells per well for T. congolense, in their respective culture media. First, 200 μL of test compounds’ solutions (400 μM, in T. brucei or T. congolense medium as appropriate) was added to the first well of each 12‐well row, from which doubling dilutions were conducted over one row per test compound. […] Fluorescence was detected using a FLUOstar Optima (BMG Labtech, Durham, NC, USA) at wavelength of 540 nm (excitation), 590 nm (emission). EC50 values were calculated by nonlinear regression using an equation for a sigmoidal dose–response curve with variable slope using Prism 5.0 (GraphPad Software Inc., San Diego, CA, USA).
# T. brucei GAPDH = T. brucei GAPDH (Trypanosoma brucei brucei, UniProt P22512); test: Inhibition of T. brucei GAPDH; type: biochemical; conditions: fixed concentration of 10 μM; data not shown; read-out: decrease of GAPDH activity
# From the text: […]. […] Limitations of solubility prevented us from testing the series at higher concentrations. However, it must be noted that we cannot exclude the possibility of a low‐affinity inhibition of GAPDH contributing to the trypanocidal effect, as compounds may accumulate to relatively high concentrations within the parasite.
# T. b. brucei B48 = test: microbe, parasite or virus in culture; type: cell-based, Trypanosoma brucei brucei; conditions: for RF, resistance factor relative to WT (B48): B48 versus 427WT; for EC50: Trypanosoma brucei, read-out: EC50 T. b. b. B48
# Description: as §1, §2
# [2] = tested on: T. b. brucei aqp2/aqp3‐KO; test: microbe, parasite or virus in culture; type: cell-based, Trypanosoma brucei brucei; conditions: for EC50: Trypanosoma brucei, read-out: EC50 T. b. b. aqp2/aq3‐KO; for RF, resistance factor relative to WT (aqp2/aqp3-KO): aqp2/aqp3-KO versus 427WT
# Description: as §1, §2
# [3] = Cytotoxicity assay on human foreskin fibroblast (HFF), resazurin; type: cell-based; conditions: human foreskin fibroblast (HFF) cells, tested up to 200 μM, read-out: HFF cytotoxic activity (EC50)
# Description: Cytotoxicity assay on human foreskin fibroblast (HFF): Toxicity of test compounds to mammalian cells was carried out using the resazurin assay previously described31 with slight modifications as follows. HFF cells were grown in a culture medium containing 500 mL of Dulbecco's modified Eagle's medium (DMEM; Sigma), 50 mL newborn calf serum (NBCS; Gibco), 5 mL penicillin/streptomycin (Gibco), and 5 mL of L‐Glutamax ([…], Gibco), at 37 °C and 5 % CO2 in vented flasks and passaged at 80–85 % of confluence. For the cytotoxicity assay, cells were suspended at 3×10^5 cells mL^−1 and 100 μL aliquots were added to each well of a 96‐well plate. The plate was incubated at 37 °C and 5 % CO2 for 24 h to allow cell adhesion. Serial test compounds dilution was performed in a different 96‐well plate and 100 μL of each dilution was transferred to each well containing cells, resulting in exposure of cells to 200–0.2 μM of test compound. Phenylarsine oxide (Sigma–Aldrich) was used as positive control and drug‐free incubation as negative control. The plates were incubated at 37 °C and 5 % CO2 for an additional 30 h, at which point 10 μL of resazurin solution ([…] in PBS) was added, followed by a final incubation for 24 h. The plates were read and the data analyzed as described above for the trypanosome assay.
# [4] = tested on: T. b. brucei 427WT trypomastigotes; test: Growth curve / time-to-kill determination; type: cell-based, Trypanosoma brucei brucei; conditions: 1× EC50; for time to sterilize the culture: 427WT seeded at 1×10^5 cells/mL
# Description: To determine whether 18–22 inhibited growth or cell division rather than causing cell death of T. b. brucei, cell growth curves were performed by treating 427WT trypomastigotes with concentrations corresponding to 0.5×, 1×, and 2× the EC50 value, using untreated cells as a control. Incubation with test compounds at half the EC50 (Figure 3 A) caused mostly some delayed growth phenotype, with rates increasing after 10 or 20 h. […] At double the concentration (Figure 3 C), all the hybrids cleared the culture between the 4 h and 8 h time points, with the cell populations rapidly declining between 2 and 4 h.
# Untreated parasites, used as control, were grown in parallel. The cells were counted by using hemocytometer cell counter (cell count/mL×10^4) at 0, 2, 4, 8, 12, 24, 28, 32, 36, 48 h of incubation. Each experiment was performed as two independent replicates, and each sample was counted at least twice.
# T. congolense IL3000 WT = test: In vitro drug susceptibility assay (resazurin), T. congolense; type: cell-based; conditions: bloodstream forms, read-out: EC50 T. c. IL3000 WT
# Description: as §1, §2
# [5] = 72 h, bloodstream trypomastigotes, resazurin, 48 h + 24 h, n=4, read-out: EC50 T. b. b. 427WT
# [6] = Table 2, 5 mM glycerol in medium, average±SEM of three, read-out: EC50 s427WT + 5 mM glycerol
# [7] = Table 2, no glycerol, average±SEM of three, read-out: EC50 Control s427WT
# T. brucei GAPDH, sequence (P22512 whole entry): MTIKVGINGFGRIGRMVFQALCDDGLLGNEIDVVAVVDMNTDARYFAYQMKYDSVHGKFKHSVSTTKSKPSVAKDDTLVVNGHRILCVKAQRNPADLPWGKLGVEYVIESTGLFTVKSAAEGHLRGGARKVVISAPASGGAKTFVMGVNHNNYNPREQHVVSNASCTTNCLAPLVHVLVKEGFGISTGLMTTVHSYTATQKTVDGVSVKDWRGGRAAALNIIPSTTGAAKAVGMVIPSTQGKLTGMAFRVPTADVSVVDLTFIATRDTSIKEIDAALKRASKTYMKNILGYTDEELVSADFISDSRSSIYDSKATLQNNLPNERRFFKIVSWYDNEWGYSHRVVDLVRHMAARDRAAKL
compound,measurement,setting,value
"CCCCCCCCCCCCCCCc1cccc(OC2=CC(=O)c3ccccc3C2=O)c1C(=O)OC [Compound 8, Methyl 2‐((1,4‐dioxo‐1,4‐dihydronaphthalen‐2‐yl)oxy)‐6‐pentadecylbenzoate]",EC50,[1]; [5],> 200 µM
same,inhibition at 10 µM,T. brucei GAPDH,< 15%
"CCCCCCCCCCCCCCCc1cccc(OC2=CC(=O)c3cccc(OC)c3C2=O)c1C(=O)OC [Compound 9, Methyl 2‐((8‐methoxy‐1,4‐dioxo‐1,4‐dihydronaphthalen‐2‐yl)oxy)‐6 pentadecylbenzoate]",EC50,[1]; [5],> 200 µM
same,inhibition at 10 µM,T. brucei GAPDH,< 15%
"CCCCCCCCCCCCCCCc1cccc(OC2=CC(=O)c3c(OC)cccc3C2=O)c1C(=O)OC [Compound 10, Methyl 2‐((5‐methoxy‐1,4‐dioxo‐1,4‐dihydronaphthalen‐2‐yl)oxy)‐6‐pentadecylbenzoate]",EC50,[1]; [5],> 200 µM
same,inhibition at 10 µM,T. brucei GAPDH,< 15%
"CCCCCCCCCCCCCCCc1cccc(OC2=CC(=O)c3cccc(O)c3C2=O)c1C(=O)OC [Compound 11, Methyl 2‐((8‐hydroxy‐1,4‐dioxo‐1,4‐dihydronaphthalen‐2‐yl)oxy)‐6‐pentadecylbenzoate]",EC50,[1]; [5],> 200 µM
same,inhibition at 10 µM,T. brucei GAPDH,< 15%
"CCCCCCCCCCCCCCCc1cccc(OC2=CC(=O)c3c(O)cccc3C2=O)c1C(=O)OC [Compound 12, Methyl 2‐((5‐hydroxy‐1,4‐dioxo‐1,4‐dihydronaphthalen‐2‐yl)oxy)‐6‐pentadecylbenzoate]",EC50,[1]; [5],> 200 µM
same,inhibition at 10 µM,T. brucei GAPDH,< 15%
"CCCCCCCCCCCCCCCc1cccc(OC2=CC(=O)c3ccccc3C2=O)c1 [Compound 13, 2‐(3‐Pentadecylphenoxy)naphthalene‐1,4‐dione]",EC50,[1]; [5],> 200 µM
same,inhibition at 10 µM,T. brucei GAPDH,< 15%
"CCCCCCCCCCCCCCCc1cccc(OC2=CC(=O)c3cccc(OC)c3C2=O)c1 [Compound 14, 8‐Methoxy‐2‐(3‐pentadecylphenoxy)naphthalene‐1,4‐dione]",EC50,[1]; [5],> 200 µM
same,inhibition at 10 µM,T. brucei GAPDH,< 15%
"CCCCCCCCCCCCCCCc1cccc(OC2=CC(=O)c3c(OC)cccc3C2=O)c1 [Compound 15, 5‐Methoxy‐2‐(3‐pentadecylphenoxy)naphthalene‐1,4‐dione]",EC50,[1]; [5],> 200 µM
same,inhibition at 10 µM,T. brucei GAPDH,< 15%
"CCCCCCCCCCCCCCCc1cccc(OC2=CC(=O)c3cccc(O)c3C2=O)c1 [Compound 16, 8‐Hydroxy‐2‐(3‐pentadecylphenoxy)naphthalene‐1,4‐dione]",EC50,[1]; [5],> 200 µM
same,inhibition at 10 µM,T. brucei GAPDH,< 15%
"CCCCCCCCCCCCCCCc1cccc(OC2=CC(=O)c3c(O)cccc3C2=O)c1 [Compound 17, 5‐Hydroxy‐2‐(3‐pentadecylphenoxy)naphthalene‐1,4‐dione]",EC50,[1]; [5],> 200 µM
same,inhibition at 10 µM,T. brucei GAPDH,< 15%
"O=C1C=C(Oc2cccc(CCCCCCCCO)c2)C(=O)c2ccccc21 [Compound 18, 2‐(3‐(8‐Hydroxyoctyl)phenoxy)naphthalene‐1,4‐dione]","SI, selectivity index=EC50(HFF)/EC50(T. b. b. WT)",[1],>21.98
same,"RF, resistance factor (+ 5 mM glycerol versus control)",[1],1.04
same,EC50,[1]; [5],9.1 ± 1.4 µM
same,EC50,[1]; [6],31.2 ± 0.6 µM
same,EC50,[1]; [7],30 ± 0.08 µM
same,"RF, resistance factor relative to WT (B48)",T. b. brucei B48,0.95
same,EC50,T. b. brucei B48,8.6 ± 2.4 µM
same,EC50,[2],10.1 ± 2.2 µM
same,"RF, resistance factor relative to WT (aqp2/aqp3-KO)",[2],1.1
same,EC50 at 54 h,[3],> 200 µM
same,inhibition at 10 µM,T. brucei GAPDH,< 15%
same,time to sterilize the culture,[4],2 h
"COc1cccc2c1C(=O)C(Oc1cccc(CCCCCCCCO)c1)=CC2=O [Compound 19, 2‐(3‐(8‐Hydroxyoctyl)phenoxy)‐8‐methoxynaphthalene‐1,4‐dione]","SI, selectivity index=EC50(HFF)/EC50(T. b. b. WT)",[1],>13.3
same,"RF, resistance factor (+ 5 mM glycerol versus control)",[1],0.97
same,EC50,[1]; [5],15 ± 1.3 µM
same,EC50,[1]; [6],16.3 ± 0.4 µM
same,EC50,[1]; [7],16.8 ± 0.06 µM
same,"RF, resistance factor relative to WT (B48)",T. b. brucei B48,0.98
same,EC50,T. b. brucei B48,14.6 ± 1.7 µM
same,EC50,[2],17.7 ± 1.5 µM
same,"RF, resistance factor relative to WT (aqp2/aqp3-KO)",[2],1.2
same,EC50 at 54 h,[3],> 200 µM
same,inhibition at 10 µM,T. brucei GAPDH,< 15%
same,time to sterilize the culture,[4],8 h
"O=C1C=C(Oc2cccc(CCCCCCCCO)c2)C(=O)c2c(O)cccc21 [Compound 21, 8‐Hydroxy‐2‐(3‐(8‐hydroxyoctyl)phenoxy)naphthalene‐1,4‐dione]","SI, selectivity index=EC50(HFF)/EC50(T. b. b. WT)",[1],>5
same,EC50,[1]; [5],40.5 ± 4.9 µM
same,"RF, resistance factor relative to WT (B48)",T. b. brucei B48,0.91
same,EC50,T. b. brucei B48,36.9 ± 5.3 µM
same,EC50,[2],46.7 ± 7.7 µM
same,"RF, resistance factor relative to WT (aqp2/aqp3-KO)",[2],1.2
same,EC50 at 54 h,[3],> 200 µM
same,inhibition at 10 µM,T. brucei GAPDH,< 15%
same,effect on cell growth,[4]; over 48 h,"decreased the growth rate substantially, with a nearly trypanostatic effect over the first 12 h"
"N=C(N)c1ccc(N=NNc2ccc(C(=N)N)cc2)cc1 [DA, Diminazene aceturate, reference compound]",EC50,T. congolense IL3000 WT,0.17 ± 0.0003 µM
"N=C(N)c1ccc(OCCCCCOc2ccc(C(=N)N)cc2)cc1 [PMD, Pentamidine, reference compound]",EC50,[1]; [5],0.0093 ± 0.0001 µM
same,"RF, resistance factor relative to WT (B48)",T. b. brucei B48,339
same,EC50,T. b. brucei B48,3.1 ± 0.7 µM
same,EC50,[2],0.2 ± 0.01 µM
same,"RF, resistance factor relative to WT (aqp2/aqp3-KO)",[2],22.0
